Laboratory results taken from ChEMBL document CHEMBL1201862, “PubChem BioAssay data set” (2004).
Blank lines part the entries; values can stand above or below the compound they belong to. Active and inactive are the calls of the source.

Assays:
[1] = target: Dual specificity protein phosphatase 3 (Homo sapiens, UniProt P51452); assay: VHR1 phosphatase inhibitors, primary screen, biochemical, absorbance, uHTS (AID 1654)
[2] = target: Tyrosine-protein kinase JAK3 (Homo sapiens, UniProt P52333); assay type: functional
[3] = target: Tyrosine-protein kinase Fyn (Homo sapiens, UniProt P06241); assay type: functional
[4] = target: MAP kinase-activated protein kinase 3 (Homo sapiens, UniProt Q16644); assay type: functional;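 note: value comes from a kinome-wide profiling panel in which MAPKAPK3 is one of the panel members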
[5] = target: Macrophage-stimulating protein receptor (Homo sapiens, UniProt Q04912); assay: Navigating the Kinome. Panel member name: MST1R; assay type: functional
[6] = target: Maternal embryonic leucine zipper kinase (Homo sapiens, UniProt Q14680); assay type: functional
[7] = target: cGMP-dependent protein kinase 1 (Homo sapiens, UniProt Q13976); assay type: functional;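 note: value from a kinome panel screen with PRKG1 as the panel member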
[8] = target: Vascular endothelial growth factor receptor 1 (Homo sapiens, UniProt P17948); assay type: functional;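 note: measured within a kinome-wide profiling panel, FLT1 as the panel member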
[9] = target: Tyrosine-protein kinase ABL1 (Homo sapiens, UniProt P00519); assay type: functional
[10] = target: Mitogen-activated protein kinase 12 (Homo sapiens, UniProt P53778); assay type: functional;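 note: measured as one member of a kinome-wide kinase profiling panel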
[11] = target: Serine/threonine-protein kinase pim-1 (Homo sapiens, UniProt P11309); assay type: functional
[12] = target: Serine/threonine-protein kinase Nek4 (Homo sapiens, UniProt P51957); assay type: functional
[13] = target: Fibroblast growth factor receptor 1 (Homo sapiens, UniProt P11362); assay type: functional
[14] = target: Mitogen-activated protein kinase 9 (Homo sapiens, UniProt P45984); assay type: functional;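 note: value from a kinome panel profiling assay, MAPK9 panel entry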
[15] = target: Cyclin-dependent kinase 5 (Homo sapiens, UniProt Q00535); assay type: functional;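 note: CDK5 measured as one member of a kinase profiling panel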
[16] = target: Tyrosine-protein kinase Fer (Homo sapiens, UniProt P16591); assay type: functional;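 note: FER tested as one member of a kinome panel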
[17] = target: Homeodomain-interacting protein kinase 2 (Homo sapiens, UniProt Q9H2X6); assay type: functional;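 note: measured within a kinome-wide kinase profiling panel, HIPK2 being one panel member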
[18] = target: Receptor tyrosine-protein kinase erbB-4 (Homo sapiens, UniProt Q15303); assay type: functional;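 note: ERBB4 member of a kinome-wide kinase profiling panel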
[19] = target: Vascular endothelial growth factor receptor 2 (Homo sapiens, UniProt P35968); assay type: functional
[20] = target: Dual specificity tyrosine-phosphorylation-regulated kinase 1A (Homo sapiens, UniProt Q13627); assay type: functional;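 note: measured against DYRK1A as one member of a broad kinome profiling panel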
[21] = target: Dual specificity tyrosine-phosphorylation-regulated kinase 3 (Homo sapiens, UniProt O43781); assay type: functional;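 note: measured as one member of a broad kinase panel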
[22] = target: Mitogen-activated protein kinase 1 (Homo sapiens, UniProt P28482); assay type: functional
Misshapen-like kinase 1 = Misshapen-like kinase 1 (Homo sapiens, UniProt Q8N4C8); assay type: functional;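 note: kinome panel screen with MINK as the panel member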
[23] = cytotoxicity in MITF-independent A375 cells – cell-based, CellTiter-Glo luminescence, dry powder, set 4, counter-screen for MITF inhibitor project, dose response (AID 624364); assay type: functional; conditions: A-375;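 note: A375 melanoma cells are MITF independent so this is a counter screen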
[24] = MITF Orthogonal Assay: SK-MEL-5 CTG Assay Measured in Cell-Based System Using Plate Reader - 2084-02_Inhibitor_Dose_DryPowder_Activity_Set5.; assay type: functional
CHO-K1 = assay: Counterscreen for antagonists of the orexin 1 receptor (OX1R; HCRTR1): Homogeneous time resolved fluorescence (HTRF)-based cell-based dose response assay to identify antagonists of the parental CHO-K1 cell line. [Related pubchem assays (depositor defined):AID434989, AID435008, AID463079, AID485270, AID492963, AID492964, AID492965, AID493232, AID504699, AID504701]; assay type: functional; conditions: Cricetulus griseus;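 note: potency for inhibition of ATP-stimulated IP1 production as antagonists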
[25] = target: T1, Apoptotic protease-activating factor 1 (Homo sapiens, UniProt O14727); assay type: functional
T1 sequence (O14727 whole entry): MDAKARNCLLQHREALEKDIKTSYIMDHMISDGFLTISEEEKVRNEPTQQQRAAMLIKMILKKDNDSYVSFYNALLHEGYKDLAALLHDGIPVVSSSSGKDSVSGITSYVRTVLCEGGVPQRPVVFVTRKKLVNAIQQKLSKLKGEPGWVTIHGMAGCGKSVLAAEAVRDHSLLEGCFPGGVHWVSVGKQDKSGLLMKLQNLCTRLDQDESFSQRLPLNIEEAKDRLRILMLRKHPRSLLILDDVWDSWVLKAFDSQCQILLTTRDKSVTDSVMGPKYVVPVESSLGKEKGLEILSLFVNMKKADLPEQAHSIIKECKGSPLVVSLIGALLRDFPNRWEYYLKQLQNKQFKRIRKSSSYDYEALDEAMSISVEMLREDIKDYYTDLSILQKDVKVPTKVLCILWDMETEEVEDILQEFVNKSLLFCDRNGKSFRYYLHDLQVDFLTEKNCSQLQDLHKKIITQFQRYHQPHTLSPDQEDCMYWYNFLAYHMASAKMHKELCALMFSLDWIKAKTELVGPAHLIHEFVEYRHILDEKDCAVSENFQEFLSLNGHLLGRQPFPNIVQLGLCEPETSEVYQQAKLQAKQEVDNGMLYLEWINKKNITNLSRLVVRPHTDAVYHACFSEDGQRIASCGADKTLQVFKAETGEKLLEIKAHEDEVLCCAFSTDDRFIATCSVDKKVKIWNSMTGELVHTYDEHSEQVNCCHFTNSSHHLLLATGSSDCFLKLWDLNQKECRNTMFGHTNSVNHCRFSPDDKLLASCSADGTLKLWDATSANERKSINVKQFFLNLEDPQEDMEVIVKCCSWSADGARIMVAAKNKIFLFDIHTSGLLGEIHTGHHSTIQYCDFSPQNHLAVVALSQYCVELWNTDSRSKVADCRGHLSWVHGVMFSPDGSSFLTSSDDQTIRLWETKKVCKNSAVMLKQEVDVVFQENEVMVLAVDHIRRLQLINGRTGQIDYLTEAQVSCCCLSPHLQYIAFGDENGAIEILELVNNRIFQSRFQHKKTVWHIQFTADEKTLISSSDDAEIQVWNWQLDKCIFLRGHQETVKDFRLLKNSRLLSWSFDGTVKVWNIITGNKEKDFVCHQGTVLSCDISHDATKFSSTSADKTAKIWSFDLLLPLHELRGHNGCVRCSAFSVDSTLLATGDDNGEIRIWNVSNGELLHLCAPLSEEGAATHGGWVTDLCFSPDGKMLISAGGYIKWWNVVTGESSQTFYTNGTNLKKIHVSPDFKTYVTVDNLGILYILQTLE

[26] = viability of HCT116 lacking mutant beta-catenin – cell-based, human colon tumor, dose response (AID 1045); assay type: functional;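 note: HCT116 colon tumor cells with beta catenin knocked out; cells exposed to compound for 60 hours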

Sequence of Misshapen-like kinase 1 (Q8N4C8 whole entry): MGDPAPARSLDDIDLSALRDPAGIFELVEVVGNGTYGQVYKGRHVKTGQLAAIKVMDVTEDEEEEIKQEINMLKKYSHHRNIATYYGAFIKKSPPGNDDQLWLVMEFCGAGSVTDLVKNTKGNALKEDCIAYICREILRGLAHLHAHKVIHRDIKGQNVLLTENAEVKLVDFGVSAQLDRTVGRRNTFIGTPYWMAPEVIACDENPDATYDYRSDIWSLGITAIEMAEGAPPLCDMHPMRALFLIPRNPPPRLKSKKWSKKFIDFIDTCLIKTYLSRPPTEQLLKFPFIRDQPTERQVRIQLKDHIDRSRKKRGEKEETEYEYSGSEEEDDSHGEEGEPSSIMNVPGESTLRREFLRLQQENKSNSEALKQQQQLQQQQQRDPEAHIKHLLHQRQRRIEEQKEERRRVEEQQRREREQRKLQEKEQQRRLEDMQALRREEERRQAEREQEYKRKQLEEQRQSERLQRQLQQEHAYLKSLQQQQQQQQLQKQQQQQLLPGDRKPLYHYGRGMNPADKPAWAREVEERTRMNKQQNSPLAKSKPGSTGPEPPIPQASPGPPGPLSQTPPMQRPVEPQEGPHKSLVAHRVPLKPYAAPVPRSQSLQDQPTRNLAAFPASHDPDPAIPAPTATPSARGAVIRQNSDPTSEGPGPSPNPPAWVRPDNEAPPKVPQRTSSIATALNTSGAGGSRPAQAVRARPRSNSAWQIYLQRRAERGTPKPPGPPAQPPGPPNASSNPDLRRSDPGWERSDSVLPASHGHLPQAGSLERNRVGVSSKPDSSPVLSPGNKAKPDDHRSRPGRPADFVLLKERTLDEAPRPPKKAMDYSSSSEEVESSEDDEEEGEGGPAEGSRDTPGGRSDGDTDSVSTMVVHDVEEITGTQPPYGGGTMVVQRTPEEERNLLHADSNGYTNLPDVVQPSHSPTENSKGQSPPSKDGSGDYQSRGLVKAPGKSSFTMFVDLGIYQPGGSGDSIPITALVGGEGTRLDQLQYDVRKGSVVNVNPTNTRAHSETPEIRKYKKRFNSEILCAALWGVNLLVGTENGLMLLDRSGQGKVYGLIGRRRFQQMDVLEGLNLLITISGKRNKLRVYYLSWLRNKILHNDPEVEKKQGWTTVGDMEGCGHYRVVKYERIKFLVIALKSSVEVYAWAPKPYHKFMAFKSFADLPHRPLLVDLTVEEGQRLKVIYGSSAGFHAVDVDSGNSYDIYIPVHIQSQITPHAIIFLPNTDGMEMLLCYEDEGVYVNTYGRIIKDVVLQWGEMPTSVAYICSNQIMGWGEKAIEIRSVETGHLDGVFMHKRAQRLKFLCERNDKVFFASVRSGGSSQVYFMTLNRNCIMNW
Sequence of Tyrosine-protein kinase ABL1 (P00519 whole entry): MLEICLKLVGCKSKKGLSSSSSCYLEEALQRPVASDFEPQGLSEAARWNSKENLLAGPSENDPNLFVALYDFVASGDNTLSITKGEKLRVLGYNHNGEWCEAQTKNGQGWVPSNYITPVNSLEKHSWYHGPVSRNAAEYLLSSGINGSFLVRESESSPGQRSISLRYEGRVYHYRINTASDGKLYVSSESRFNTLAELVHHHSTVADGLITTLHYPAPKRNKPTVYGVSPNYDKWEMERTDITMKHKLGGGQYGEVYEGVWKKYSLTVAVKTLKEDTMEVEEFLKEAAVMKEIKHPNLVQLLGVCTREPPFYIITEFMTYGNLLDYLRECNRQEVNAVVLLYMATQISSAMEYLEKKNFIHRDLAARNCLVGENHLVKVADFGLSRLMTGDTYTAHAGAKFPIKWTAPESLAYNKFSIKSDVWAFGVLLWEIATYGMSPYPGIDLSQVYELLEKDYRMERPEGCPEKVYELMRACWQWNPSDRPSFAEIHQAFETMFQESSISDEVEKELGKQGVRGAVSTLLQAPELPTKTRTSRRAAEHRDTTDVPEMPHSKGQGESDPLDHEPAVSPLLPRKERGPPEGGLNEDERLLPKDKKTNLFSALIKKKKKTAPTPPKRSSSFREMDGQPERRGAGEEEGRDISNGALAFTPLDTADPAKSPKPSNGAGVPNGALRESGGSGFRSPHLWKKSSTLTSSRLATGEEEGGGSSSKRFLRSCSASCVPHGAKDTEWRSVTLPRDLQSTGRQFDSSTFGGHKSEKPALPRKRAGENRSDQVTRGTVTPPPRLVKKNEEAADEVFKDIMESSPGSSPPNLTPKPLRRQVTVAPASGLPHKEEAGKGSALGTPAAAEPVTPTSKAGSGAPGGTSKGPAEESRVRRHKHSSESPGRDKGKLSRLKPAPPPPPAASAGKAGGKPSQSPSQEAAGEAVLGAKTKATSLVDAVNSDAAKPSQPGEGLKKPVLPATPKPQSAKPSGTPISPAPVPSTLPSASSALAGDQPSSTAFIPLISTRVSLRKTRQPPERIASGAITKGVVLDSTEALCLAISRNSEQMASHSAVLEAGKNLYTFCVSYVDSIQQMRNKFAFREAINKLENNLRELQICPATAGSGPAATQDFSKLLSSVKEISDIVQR
Sequence of cGMP-dependent protein kinase 1 (Q13976 whole entry): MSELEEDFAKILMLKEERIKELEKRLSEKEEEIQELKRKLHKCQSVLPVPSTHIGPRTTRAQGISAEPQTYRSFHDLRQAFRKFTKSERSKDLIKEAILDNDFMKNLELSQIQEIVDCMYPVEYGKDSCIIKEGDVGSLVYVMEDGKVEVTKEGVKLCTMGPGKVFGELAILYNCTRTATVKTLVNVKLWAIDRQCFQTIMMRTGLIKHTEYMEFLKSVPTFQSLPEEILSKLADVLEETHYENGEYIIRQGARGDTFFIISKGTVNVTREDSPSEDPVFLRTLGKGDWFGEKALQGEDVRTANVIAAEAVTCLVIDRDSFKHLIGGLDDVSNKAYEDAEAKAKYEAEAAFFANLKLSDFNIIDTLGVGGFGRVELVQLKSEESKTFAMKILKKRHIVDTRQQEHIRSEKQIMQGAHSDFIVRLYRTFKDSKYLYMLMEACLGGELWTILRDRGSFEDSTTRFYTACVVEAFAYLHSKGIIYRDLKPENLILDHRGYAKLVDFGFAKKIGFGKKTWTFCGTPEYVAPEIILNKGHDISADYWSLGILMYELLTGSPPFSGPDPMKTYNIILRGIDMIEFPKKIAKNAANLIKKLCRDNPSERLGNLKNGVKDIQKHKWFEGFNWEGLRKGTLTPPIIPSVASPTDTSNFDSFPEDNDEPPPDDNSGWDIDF
Sequence of Mitogen-activated protein kinase 1 (P28482 whole entry): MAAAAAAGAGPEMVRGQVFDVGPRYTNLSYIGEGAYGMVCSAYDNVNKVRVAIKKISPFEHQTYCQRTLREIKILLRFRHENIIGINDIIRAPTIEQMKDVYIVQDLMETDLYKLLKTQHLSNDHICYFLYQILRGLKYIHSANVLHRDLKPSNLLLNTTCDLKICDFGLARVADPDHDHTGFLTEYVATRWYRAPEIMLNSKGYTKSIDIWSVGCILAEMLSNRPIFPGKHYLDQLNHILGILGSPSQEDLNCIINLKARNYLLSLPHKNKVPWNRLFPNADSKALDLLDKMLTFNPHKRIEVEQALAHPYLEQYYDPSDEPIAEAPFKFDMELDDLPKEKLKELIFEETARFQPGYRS
Sequence of Mitogen-activated protein kinase 12 (P53778 whole entry): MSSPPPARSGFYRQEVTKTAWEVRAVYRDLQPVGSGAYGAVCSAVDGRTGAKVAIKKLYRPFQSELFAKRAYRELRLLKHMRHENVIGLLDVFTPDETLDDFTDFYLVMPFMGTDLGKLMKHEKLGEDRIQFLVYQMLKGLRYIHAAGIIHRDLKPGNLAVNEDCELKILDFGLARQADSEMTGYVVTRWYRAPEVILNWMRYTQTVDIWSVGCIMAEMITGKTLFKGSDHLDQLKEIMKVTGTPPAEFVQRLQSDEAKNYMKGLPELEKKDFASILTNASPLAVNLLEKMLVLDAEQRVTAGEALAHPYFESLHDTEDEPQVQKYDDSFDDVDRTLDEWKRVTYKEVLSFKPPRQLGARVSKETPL
Sequence of Tyrosine-protein kinase JAK3 (P52333 whole entry): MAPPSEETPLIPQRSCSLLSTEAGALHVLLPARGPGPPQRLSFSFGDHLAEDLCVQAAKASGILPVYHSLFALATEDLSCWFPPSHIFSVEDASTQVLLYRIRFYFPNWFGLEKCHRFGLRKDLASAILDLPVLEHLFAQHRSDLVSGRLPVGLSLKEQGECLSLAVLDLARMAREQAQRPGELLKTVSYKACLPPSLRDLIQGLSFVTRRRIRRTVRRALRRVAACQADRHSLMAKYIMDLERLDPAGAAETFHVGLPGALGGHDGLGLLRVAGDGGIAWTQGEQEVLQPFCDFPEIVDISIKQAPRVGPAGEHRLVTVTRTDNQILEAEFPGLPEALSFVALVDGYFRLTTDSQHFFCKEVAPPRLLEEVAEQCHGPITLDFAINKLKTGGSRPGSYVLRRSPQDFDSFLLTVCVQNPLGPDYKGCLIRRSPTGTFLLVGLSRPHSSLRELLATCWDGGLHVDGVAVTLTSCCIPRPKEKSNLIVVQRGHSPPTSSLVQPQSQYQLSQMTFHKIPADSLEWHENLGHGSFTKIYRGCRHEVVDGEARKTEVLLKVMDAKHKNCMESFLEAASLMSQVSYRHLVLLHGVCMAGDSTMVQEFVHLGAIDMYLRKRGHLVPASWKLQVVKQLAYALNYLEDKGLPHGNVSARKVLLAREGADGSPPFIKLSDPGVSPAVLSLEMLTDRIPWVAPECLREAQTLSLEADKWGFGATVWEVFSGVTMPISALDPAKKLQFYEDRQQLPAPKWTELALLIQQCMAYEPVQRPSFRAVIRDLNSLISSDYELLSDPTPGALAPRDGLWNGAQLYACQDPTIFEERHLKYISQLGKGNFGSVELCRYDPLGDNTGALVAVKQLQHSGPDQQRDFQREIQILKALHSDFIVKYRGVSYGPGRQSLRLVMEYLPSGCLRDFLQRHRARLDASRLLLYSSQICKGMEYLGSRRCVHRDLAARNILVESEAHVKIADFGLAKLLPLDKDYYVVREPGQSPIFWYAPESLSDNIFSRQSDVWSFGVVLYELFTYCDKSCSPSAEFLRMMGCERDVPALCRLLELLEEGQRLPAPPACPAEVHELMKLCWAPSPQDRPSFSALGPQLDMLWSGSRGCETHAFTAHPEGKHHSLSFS

SMILES: CS(=O)(=O)c1ccc2c(c1)SC1=NC(=O)/C(=C/c3ccc(O)c(O)c3)C(=N)N12
IC50 [1]: 10.4 µM (active)

Ki [2]: 1 µM (active)
Ki [3]: 0.251 µM (active)
Ki [4]: > 10 µM (inactive)
Ki [5]: 0.794 µM (active)
Ki [6]: 0.398 µM (active)
Ki [7]: 0.631 µM (active)
Ki [8]: 0.2 µM (active)
Ki [9]: > 0.631 µM (inactive)
Ki [10]: 0.631 µM (active)
Ki [11]: > 5.01 µM (inactive)
Ki [12]: 1 µM (active)
Ki [13]: 0.501 µM (active)
Ki [14]: 0.251 µM (active)
Ki [15]: 0.0126 µM (active)
Ki [16]: 0.251 µM (active)
Ki [17]: 0.0251 µM (active)
Ki [18]: > 3.98 µM (inactive)
Ki [19]: 0.398 µM (active)
Ki [20]: 0.1 µM (active)
Ki [21]: 0.631 µM (active)
Ki [22]: 0.1 µM (active)
Ki (Misshapen-like kinase 1): 0.251 µM (active)
SMILES: COc1ccc(C(=O)Nc2n[nH]c3ccc(-c4cn(Cc5ccccc5)nn4)cc23)cc1OC

SMILES: C=CCNC1=C(Cl)C(=O)c2ccccc2C1=O
AC50 [23]: > 70 µM (inactive)
AC50 [24]: 1.7 µM (active)

SMILES: CN(C)c1ccc(-c2nnc(-c3cccs3)o2)cc1
IC50 (CHO-K1): > 66.2 µM (inactive)

SMILES: CCOC(=O)C(C(=O)OCC)c1cc(Br)c2noc3c2c1C(=O)c1ccccc1-3
IC50 [25]: 47.7 µM (active)
EC50 [26]: 4.39 µM (active)
